From US20250346602A1, “LACTAM SUBSTITUTED IMIDAZOPYRIDAZINE IL-17A MODULATORS AND USES THEREOF” (DICE ALPHA, INC., priority 2022, published 2025)

Molecular target: T1, IL-17A/A (Homo sapiens, UniProt Q16552)
T1 construct: purchased Genscript Z03228
T1 sequence (Q16552 24-155): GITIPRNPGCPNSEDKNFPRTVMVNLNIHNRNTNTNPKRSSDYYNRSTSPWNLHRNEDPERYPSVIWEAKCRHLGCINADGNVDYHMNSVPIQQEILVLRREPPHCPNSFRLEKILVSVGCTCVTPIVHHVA
Assay: IL-17A/A HEK-Blue cell assay
Format: cell-based
Settings: HEK-Blue IL-17A reporter cell line (HEK 293), IL-17A/A stimulation, 20 hours incubation, SEAP read at A630
Procedure: The HEK-Blue IL-17A reporter cell line (Fisher #NC1408637) was used for cell-based IL-17A/A inhibition assays. Cells were grown and prepared for assays according to the manufacturer's instructions. This cell line consists of HEK 293 cells that were designed to expressed IL-17RA, IL-17RC, and the ActI adapter molecule, the combination of which, when stimulated by IL-17A/A activates a NFκB promoter and drives expression of a recombinant Secreted Alkaline Phosphatase (SEAP) gene protein. Media from the cells is then added to a development reagent (Quanti-Blue Substrate, Fisher #NC9711613), and read at A630.
Compounds were titrated in DMSO, with a top final compound concentration of 10 uM, 1 uM, or 0.3 uM, and added to the cells immediately before adding IL-17A/A (Genscript #Z03228). The cells, compound, and IL-17A/A were then incubated for 20 hours before media was removed for SEAP analysis. The resulting inhibition curve was then analyzed using Graphpad Prism 7.0, and IC50 values were determined using a 4-parameter nonlinear fit. DMSO was added to a universal final concentration of 0.1% to optimize background.

**Q.** For `O=C(N[C@H](c1cn2nc(CC3C[C@@H](C(F)(F)F)CNC3=O)ccc2n1)C1CCC(F)(F)CC1)c1ccnn1C1CC1` (stereo partly drawn) [Compound 137, 1-cyclopropyl-N-((1S)-(4,4-difluorocyclohexyl)(6-(((5R)-2-oxo-5-(trifluoromethyl)piperidin-3-yl)methyl)imidazo[1,2-b]pyridazin-2-yl)methyl)-1H-pyrazole-5-carboxamide], which IC50 is on record?
**A.** 100 to 1000 nM

**Q.** `CCn1nccc1C(=O)N[C@H](c1cn2ncc(CC3C[C@@H](C(F)(F)F)NC3=O)cc2n1)C(C1CC1)C1CC1` (single isomer, unassigned) [Compound 201] was tested. Which IC50 did it give?
**A.** > 1000 nM

**Q.** Which IC50 does the source give for `CCn1nccc1C(=O)N[C@H](c1cn2nc(C[C@@H]3CCCNC3=O)ccc2n1)[C@H]1CC[C@H](C)CC1` [Compound 39, 1-ethyl-N—((S)-((1r,4S)-4-methylcyclohexyl)(6-(((S)-2-oxopiperidin-3-yl)methyl)imidazo[1,2-b]pyridazin-2-yl)methyl)-1H-pyrazole-5-carboxamide] here?
**A.** 100 to 1000 nM

**Q.** How did the IC50 turn out when `CCn1nccc1C(=O)N[C@H](c1cn2nc(CC3CC(C)(C)CNC3=O)ccc2n1)[C@H]1CC[C@H](C)CC1` (stereo partly drawn) [Compound 58, N-((1S)-(6-((5,5-dimethyl-2-oxopiperidin-3-yl)methyl)imidazo[1,2-b]pyridazin-2-yl)((1r,4S)-4-methylcyclohexyl)methyl)-1-ethyl-1H-pyrazole-5-carboxamide] was run?
**A.** > 1000 nM

**Q.** `O=C(N[C@H](c1cn2nc(CC3C[C@@H](C(F)(F)F)CNC3=O)ccc2n1)C1CCC(F)(F)CC1)c1conc1C1CC1` (stereo partly drawn) [Compound 136, 3-cyclopropyl-N-((1S)-(4,4-difluorocyclohexyl)(6-(((5R)-2-oxo-5-(trifluoromethyl)piperidin-3-yl)methyl)imidazo[1,2-b]pyridazin-2-yl)methyl)isoxazole-4-carboxamide] was tested. Which IC50 did it give?
**A.** 100 to 1000 nM

**Q.** For `CC[C@@H](c1ccc(F)cc1)C(NC(=O)c1ccnn1CC)c1cn2nc(CC3CC(F)(F)CNC3=O)ccc2n1` (single isomer, unassigned) [Compound 31], which IC50 is on record?
**A.** 100 to 1000 nM

**Q.** With `CCn1nccc1C(=O)N[C@H](c1cn2nc(CC3C[C@H](C(F)(F)F)CNC3=O)ccc2n1)C1CCCCCC1` (stereo partly drawn) [Compound 177, N—((S)-cycloheptyl(6-(((5S)-2-oxo-5-(trifluoromethyl)piperidin-3-yl)methyl)imidazo[1,2-b]pyridazin-2-yl)methyl)-1-ethyl-1H-pyrazole-5-carboxamide] as the compound, how does the IC50 read?
**A.** < 100 nM

**Q.** Which IC50 does the source give for `CCN(C)c1cc2nc([C@@H](NC(=O)c3ccnn3CC)C3CCC(F)(F)CC3)cn2nc1CC1C[C@@H](C(F)(F)F)CNC1=O` (single isomer, unassigned) [Compound 89] here?
**A.** < 100 nM

**Q.** How did the IC50 turn out when `CCn1nccc1C(=O)N[C@H](c1cn2nc(CC3C[C@@H](C(F)(F)F)CNC3=O)c(C(C)OC)cc2n1)C1CCC(F)(F)CC1` (stereo partly drawn) [Compound 183, N-((1S)-(4,4-difluorocyclohexyl)(7-(1-methoxyethyl)-6-(((5R)-2-oxo-5-(trifluoromethyl)piperidin-3-yl)methyl)imidazo[1,2-b]pyridazin-2-yl)methyl)-1-ethyl-1H-pyrazole-5-carboxamide] was run?
**A.** < 100 nM

**Q.** With `CC(C)c1nonc1C(=O)N[C@H](c1cn2nc(CC3C[C@@H](C(F)(F)F)CNC3=O)ccc2n1)[C@H]1CCCC(F)(F)C1` (stereo partly drawn) [Compound 150, N-((1S)—((S)-3,3-difluorocyclohexyl)(6-(((5R)-2-oxo-5-(trifluoromethyl)piperidin-3-yl)methyl)imidazo[1,2-b]pyridazin-2-yl)methyl)-4-isopropyl-1,2,5-oxadiazole-3-carboxamide] as the compound, how does the IC50 read?
**A.** < 100 nM

**Q.** Which IC50 does the source give for `Cn1nc(C(F)F)cc1C(=O)N[C@H](c1cn2nc(CC3C[C@@H](C(F)(F)F)CNC3=O)ccc2n1)C1CCC(F)(F)CC1` (stereo partly drawn) [Compound 129, N-((1S)-(4,4-difluorocyclohexyl)(6-(((5R)-2-oxo-5-(trifluoromethyl)piperidin-3-yl)methyl)imidazo[1,2-b]pyridazin-2-yl)methyl)-3-(difluoromethyl)-1-methyl-1H-pyrazole-5-carboxamide] here?
**A.** > 1000 nM

**Q.** How did the IC50 turn out when `CC(C)n1nccc1C(=O)N[C@H](c1cn2nc(CC3C[C@H](C(F)(F)F)CNC3=O)ccc2n1)[C@@H]1CCCC(F)(F)C1` (stereo partly drawn) [Compound 160, N-((1S)—((R)-3,3-difluorocyclohexyl)(6-(((5S)-2-oxo-5-(trifluoromethyl)piperidin-3-yl)methyl)imidazo[1,2-b]pyridazin-2-yl)methyl)-1-isopropyl-1H-pyrazole-5-carboxamide] was run?
**A.** < 100 nM

**Q.** With `CCn1nccc1C(=O)N[C@H](c1cn2nc(CC3C[C@@H](C(F)(F)F)CNC3=O)ccc2n1)C1CC2(CC2)C1` (stereo partly drawn) [Compound 192, 1-ethyl-N—((1S)-(6-(((5R)-2-oxo-5-(trifluoromethyl)piperidin-3-yl)methyl)imidazo[1,2-b]pyridazin-2-yl)(spiro[2.3]hexan-5-yl)methyl)-1H-pyrazole-5-carboxamide] as the compound, how does the IC50 read?
**A.** > 1000 nM

**Q.** `CCn1nccc1C(=O)N[C@H](c1cn2nc(CC3C[C@@H](C(F)(F)F)CNC3=O)c(N(C)CC(F)(F)F)cc2n1)C1CCC(F)(F)CC1` (single isomer, unassigned) [Compound 181] was tested. Which IC50 did it give?
**A.** < 100 nM

**Q.** Which IC50 does the source give for `CCn1nccc1C(=O)N[C@H](c1cn2nc(CC3C[C@@H](C(F)(F)F)NC3=O)ccc2n1)C1CCC(F)(F)CC1` (stereo partly drawn) [Compound 7, N-((1S)-(4,4-difluorocyclohexyl)(6-(((5S)-2-oxo-5-(trifluoromethyl)pyrrolidin-3-yl)methyl)imidazo[1,2-b]pyridazin-2-yl)methyl)-1-ethyl-1H-pyrazole-5-carboxamide] here?
**A.** 100 to 1000 nM

**Q.** How did the IC50 turn out when `CCn1nccc1C(=O)N[C@H](c1cn2nc(CC3C[C@@H](C(F)(F)F)NC3=O)ccc2n1)C(C1CC1)C1CC1` (single isomer, unassigned) [Compound 15] was run?
**A.** > 1000 nM

**Q.** `CCn1nccc1C(=O)N[C@H](c1cn2nc(CC3CC(CC(F)(F)F)CNC3=O)ccc2n1)C1CCC(F)(F)CC1` (single isomer, unassigned) [Compound 65] was tested. Which IC50 did it give?
**A.** 100 to 1000 nM

**Q.** `CCn1nccc1C(=O)N[C@H](c1cn2nc(CC3C[C@@H](C(F)(F)F)CNC3=O)c(C(F)(F)F)cc2n1)[C@H]1CC[C@H](C)CC1` (single isomer, unassigned) [Compound 79] was tested. Which IC50 did it give?
**A.** > 1000 nM

**Q.** `CCn1nccc1C(=O)N[C@H](c1cn2nc(CC3C[C@@H](C(F)(F)F)CNC3=O)ccc2n1)C1CCC(F)(F)CC1` (stereo partly drawn) [Compound 95, N-((1S)-(4,4-difluorocyclohexyl)(6-(((5R)-2-oxo-5-(trifluoromethyl)piperidin-3-yl)methyl)imidazo[1,2-b]pyridazin-2-yl)methyl)-1-ethyl-1H-pyrazole-5-carboxamide] was tested. Which IC50 did it give?
**A.** 100 to 1000 nM

**Q.** With `CCc1nonc1C(=O)N[C@H](c1cn2nc(C[C@H]3CCCNC3=O)ccc2n1)C1CCC(F)(F)CC1` [Compound 37, N—((S)-(4,4-difluorocyclohexyl)(6-(((R)-2-oxopiperidin-3-yl)methyl)imidazo[1,2-b]pyridazin-2-yl)methyl)-4-ethyl-1,2,5-oxadiazole-3-carboxamide] as the compound, how does the IC50 read?
**A.** > 1000 nM

**Q.** `O=C(N[C@H](c1cn2ncc(CC3C[C@@H](C(F)(F)F)NC3=O)cc2n1)C1CCC(F)(F)CC1)c1conc1C1CC1` (single isomer, unassigned) [Compound 219] was tested. Which IC50 did it give?
**A.** < 100 nM

**Q.** How did the IC50 turn out when `CCn1nccc1C(=O)N[C@H](c1cn2nc(CC3C(=O)NCCC3C)ccc2n1)[C@H]1CC[C@H](C)CC1` (single isomer, unassigned) [Compound 52] was run?
**A.** > 1000 nM

**Q.** With `CCn1nccc1C(=O)N[C@H](c1cn2ncc(CC3CCCNC3=O)cc2n1)C1CCCCCC1` (mixture of isomers) [Compound 206, N-((1S)-cycloheptyl(7-((2-oxopiperidin-3-yl)methyl)imidazo[1,2-b]pyridazin-2-yl)methyl)-1-ethyl-1H-pyrazole-5-carboxamide] as the compound, how does the IC50 read?
**A.** > 1000 nM

**Q.** Which IC50 does the source give for `CCn1nccc1C(=O)N[C@H](c1cn2nc(CC3CC(C(F)F)CNC3=O)ccc2n1)C(C1CC1)C1CC1` (mixture of isomers) [Compound 41, N-((1S)-2,2-dicyclopropyl-1-(6-((5-(difluoromethyl)-2-oxopiperidin-3-yl)methyl)imidazo[1,2-b]pyridazin-2-yl)ethyl)-1-ethyl-1H-pyrazole-5-carboxamide] here?
**A.** > 1000 nM

**Q.** With `CCn1nccc1C(=O)N[C@H](c1cn2nc(CC3C[C@@H](C(F)(F)F)CNC3=O)ccc2n1)C1CCC2(CC1)CC2` (single isomer, unassigned) [Compound 188] as the compound, how does the IC50 read?
**A.** 100 to 1000 nM

**Q.** Which IC50 does the source give for `CCn1nccc1C(=O)N[C@H](c1cn2nc(CC3C[C@@H](C(F)(F)F)CNC3=O)ccc2n1)[C@H]1C[C@@H](C2CC2)C1` (stereo partly drawn) [Compound 179, N-((1S)-((1S,3R)-3-cyclopropylcyclobutyl)(6-(((5R)-2-oxo-5-(trifluoromethyl)piperidin-3-yl)methyl)imidazo[1,2-b]pyridazin-2-yl)methyl)-1-ethyl-1H-pyrazole-5-carboxamide] here?
**A.** > 1000 nM

**Q.** For `CCn1nccc1C(=O)N[C@H](c1cn2nc(CC3C[C@@H](C(F)(F)F)CNC3=O)ccc2n1)C1CCC(F)(F)CC1` (stereo partly drawn) [Compound 193, N-((1S)-(4,4-difluorocyclohexyl)(6-(((5R)-2-oxo-5-(trifluoromethyl)piperidin-3-yl)methyl)imidazo[1,2-b]pyridazin-2-yl)methyl)-1-ethyl-1H-pyrazole-5-carboxamide], which IC50 is on record?
**A.** > 1000 nM

**Q.** With `CCn1nccc1C(=O)N[C@H](c1cn2nc(CC3CCC(C(F)(F)F)NC3=O)ccc2n1)C(C1CC1)C1CC1` (single isomer, unassigned) [Compound 43] as the compound, how does the IC50 read?
**A.** > 1000 nM
